Numbers after ± are expanded uncertainties.
Experiments:
[1] = 298.15 K, 101 kPa, Liquid; for viscosity: Capillary tube (Ostwald / Ubbelohde) method; for speed of sound: Linear variable-path acoustic interferometer; for mass density: Pycnometric method
[2] = xn = mol fraction of the nth substance listed; settings: 298.15 K, 101 kPa, Liquid; for viscosity: Capillary tube (Ostwald / Ubbelohde) method; for speed of sound: Linear variable-path acoustic interferometer; for mass density: Pycnometric method

SMILES: CC(C)CO [2-methyl-1-propanol]
- viscosity [1]: 3.404 ± 0.029 mPa·s
- speed of sound [1]: 1191.3 ± 9.6 m/s
- mass density [1]: 798.2 ± 0.4 kg/m3

SMILES: CC(C)CO [2-methyl-1-propanol] + CCCCCC
- viscosity ([2]; x1 = 0.0554): 0.323 ± 0.012 mPa·s
- viscosity ([2]; x1 = 0.104): 0.337 ± 0.012 mPa·s
- viscosity ([2]; x1 = 0.2): 0.373 ± 0.012 mPa·s
- viscosity ([2]; x1 = 0.3274): 0.462 ± 0.012 mPa·s
- viscosity ([2]; x1 = 0.4173): 0.547 ± 0.013 mPa·s
- viscosity ([2]; x1 = 0.4666): 0.606 ± 0.013 mPa·s
- viscosity ([2]; x1 = 0.5057): 0.659 ± 0.013 mPa·s
- viscosity ([2]; x1 = 0.5589): 0.748 ± 0.013 mPa·s
- viscosity ([2]; x1 = 0.609): 0.859 ± 0.013 mPa·s
- viscosity ([2]; x1 = 0.7073): 1.162 ± 0.014 mPa·s
- viscosity ([2]; x1 = 0.8051): 1.627 ± 0.017 mPa·s
- viscosity ([2]; x1 = 0.861): 2.004 ± 0.019 mPa·s
- viscosity ([2]; x1 = 0.9149): 2.454 ± 0.022 mPa·s
- viscosity ([2]; x1 = 0.9376): 2.67 ± 0.023 mPa·s
- viscosity ([2]; x1 = 1): 3.404 ± 0.029 mPa·s
- speed of sound ([2]; x1 = 0.0554): 1077.5 ± 8.7 m/s
- speed of sound ([2]; x1 = 0.104): 1077.5 ± 8.7 m/s
- speed of sound ([2]; x1 = 0.2): 1080.1 ± 8.7 m/s
- speed of sound ([2]; x1 = 0.3274): 1086.7 ± 8.8 m/s
- speed of sound ([2]; x1 = 0.4173): 1094.1 ± 8.8 m/s
- speed of sound ([2]; x1 = 0.4666): 1099.2 ± 8.9 m/s
- speed of sound ([2]; x1 = 0.5057): 1103.5 ± 8.9 m/s
- speed of sound ([2]; x1 = 0.5589): 1110 ± 9 m/s
- speed of sound ([2]; x1 = 0.609): 1116.9 ± 9 m/s
- speed of sound ([2]; x1 = 0.7073): 1132.5 ± 9.2 m/s
- speed of sound ([2]; x1 = 0.8051): 1150 ± 9.3 m/s
- speed of sound ([2]; x1 = 0.861): 1161.3 ± 9.4 m/s
- speed of sound ([2]; x1 = 0.9149): 1172.5 ± 9.5 m/s
- speed of sound ([2]; x1 = 0.9376): 1177.5 ± 9.5 m/s
- speed of sound ([2]; x1 = 1): 1191.3 ± 9.6 m/s
- mass density ([2]; x1 = 0.0554): 660.1 ± 0.4 kg/m3
- mass density ([2]; x1 = 0.104): 664.9 ± 0.4 kg/m3
- mass density ([2]; x1 = 0.2): 675.1 ± 0.4 kg/m3
- mass density ([2]; x1 = 0.3274): 690.1 ± 0.4 kg/m3
- mass density ([2]; x1 = 0.4173): 701.6 ± 0.4 kg/m3
- mass density ([2]; x1 = 0.4666): 708.3 ± 0.4 kg/m3
- mass density ([2]; x1 = 0.5057): 713.8 ± 0.4 kg/m3
- mass density ([2]; x1 = 0.5589): 721.5 ± 0.4 kg/m3
- mass density ([2]; x1 = 0.609): 729 ± 0.4 kg/m3
- mass density ([2]; x1 = 0.7073): 744.6 ± 0.4 kg/m3
- mass density ([2]; x1 = 0.8051): 761.2 ± 0.4 kg/m3
- mass density ([2]; x1 = 0.861): 771.2 ± 0.4 kg/m3
- mass density ([2]; x1 = 0.9149): 781.3 ± 0.4 kg/m3
- mass density ([2]; x1 = 0.9376): 785.7 ± 0.4 kg/m3
- mass density ([2]; x1 = 1): 798.2 ± 0.4 kg/m3

SMILES: CC(C)CO [2-methyl-1-propanol] + CCCCCCCC
- viscosity ([2]; x1 = 0.0589): 0.527 ± 0.013 mPa·s
- viscosity ([2]; x1 = 0.1165): 0.535 ± 0.013 mPa·s
- viscosity ([2]; x1 = 0.205): 0.576 ± 0.013 mPa·s
- viscosity ([2]; x1 = 0.2792): 0.617 ± 0.013 mPa·s
- viscosity ([2]; x1 = 0.3371): 0.663 ± 0.013 mPa·s
- viscosity ([2]; x1 = 0.4081): 0.719 ± 0.013 mPa·s
- viscosity ([2]; x1 = 0.4662): 0.788 ± 0.013 mPa·s
- viscosity ([2]; x1 = 0.5126): 0.85 ± 0.013 mPa·s
- viscosity ([2]; x1 = 0.6126): 1.028 ± 0.014 mPa·s
- viscosity ([2]; x1 = 0.6615): 1.154 ± 0.014 mPa·s
- viscosity ([2]; x1 = 0.7069): 1.3 ± 0.015 mPa·s
- viscosity ([2]; x1 = 0.7855): 1.634 ± 0.017 mPa·s
- viscosity ([2]; x1 = 0.8615): 2.102 ± 0.019 mPa·s
- viscosity ([2]; x1 = 0.9523): 2.875 ± 0.025 mPa·s
- viscosity ([2]; x1 = 1): 3.404 ± 0.029 mPa·s
- speed of sound ([2]; x1 = 0.0589): 1168.3 ± 9.4 m/s
- speed of sound ([2]; x1 = 0.1165): 1166.5 ± 9.4 m/s
- speed of sound ([2]; x1 = 0.205): 1164.8 ± 9.4 m/s
- speed of sound ([2]; x1 = 0.2792): 1164 ± 9.4 m/s
- speed of sound ([2]; x1 = 0.3371): 1163.1 ± 9.4 m/s
- speed of sound ([2]; x1 = 0.4081): 1162.7 ± 9.4 m/s
- speed of sound ([2]; x1 = 0.4662): 1163.3 ± 9.4 m/s
- speed of sound ([2]; x1 = 0.5126): 1163.7 ± 9.4 m/s
- speed of sound ([2]; x1 = 0.6126): 1166.3 ± 9.4 m/s
- speed of sound ([2]; x1 = 0.6615): 1168.4 ± 9.4 m/s
- speed of sound ([2]; x1 = 0.7069): 1170 ± 9.5 m/s
- speed of sound ([2]; x1 = 0.7855): 1173.5 ± 9.5 m/s
- speed of sound ([2]; x1 = 0.8615): 1178.6 ± 9.5 m/s
- speed of sound ([2]; x1 = 0.9523): 1187 ± 9.6 m/s
- speed of sound ([2]; x1 = 1): 1191.3 ± 9.6 m/s
- mass density ([2]; x1 = 0.0589): 701.5 ± 0.4 kg/m3
- mass density ([2]; x1 = 0.1165): 704.5 ± 0.4 kg/m3
- mass density ([2]; x1 = 0.205): 709.8 ± 0.4 kg/m3
- mass density ([2]; x1 = 0.2792): 714.7 ± 0.4 kg/m3
- mass density ([2]; x1 = 0.3371): 718.9 ± 0.4 kg/m3
- mass density ([2]; x1 = 0.4081): 724.6 ± 0.4 kg/m3
- mass density ([2]; x1 = 0.4662): 729.6 ± 0.4 kg/m3
- mass density ([2]; x1 = 0.5126): 733.9 ± 0.4 kg/m3
- mass density ([2]; x1 = 0.6126): 744.1 ± 0.4 kg/m3
- mass density ([2]; x1 = 0.6615): 749.5 ± 0.4 kg/m3
- mass density ([2]; x1 = 0.7069): 754.9 ± 0.4 kg/m3
- mass density ([2]; x1 = 0.7855): 765 ± 0.4 kg/m3
- mass density ([2]; x1 = 0.8615): 775.8 ± 0.4 kg/m3
- mass density ([2]; x1 = 0.9523): 790.1 ± 0.4 kg/m3
- mass density ([2]; x1 = 1): 798.2 ± 0.4 kg/m3

SMILES: CC(C)CO [2-methyl-1-propanol] + CCCCCCCCCC
- viscosity ([2]; x1 = 0.0728): 0.848 ± 0.013 mPa·s
- viscosity ([2]; x1 = 0.1021): 0.859 ± 0.013 mPa·s
- viscosity ([2]; x1 = 0.2032): 0.89 ± 0.013 mPa·s
- viscosity ([2]; x1 = 0.2976): 0.934 ± 0.014 mPa·s
- viscosity ([2]; x1 = 0.3547): 0.976 ± 0.014 mPa·s
- viscosity ([2]; x1 = 0.4171): 1.023 ± 0.014 mPa·s
- viscosity ([2]; x1 = 0.5016): 1.119 ± 0.014 mPa·s
- viscosity ([2]; x1 = 0.6084): 1.297 ± 0.015 mPa·s
- viscosity ([2]; x1 = 0.6575): 1.415 ± 0.016 mPa·s
- viscosity ([2]; x1 = 0.7027): 1.543 ± 0.016 mPa·s
- viscosity ([2]; x1 = 0.8004): 1.942 ± 0.018 mPa·s
- viscosity ([2]; x1 = 0.8952): 2.503 ± 0.022 mPa·s
- viscosity ([2]; x1 = 0.9497): 2.928 ± 0.025 mPa·s
- viscosity ([2]; x1 = 0.9848): 3.249 ± 0.028 mPa·s
- viscosity ([2]; x1 = 1): 3.404 ± 0.029 mPa·s
- speed of sound ([2]; x1 = 0.0728): 1228.7 ± 9.9 m/s
- speed of sound ([2]; x1 = 0.1021): 1226.6 ± 9.9 m/s
- speed of sound ([2]; x1 = 0.2032): 1219.9 ± 9.9 m/s
- speed of sound ([2]; x1 = 0.2976): 1215.2 ± 9.8 m/s
- speed of sound ([2]; x1 = 0.3547): 1212.2 ± 9.8 m/s
- speed of sound ([2]; x1 = 0.4171): 1209.4 ± 9.8 m/s
- speed of sound ([2]; x1 = 0.5016): 1206.1 ± 9.8 m/s
- speed of sound ([2]; x1 = 0.6084): 1201.8 ± 9.7 m/s
- speed of sound ([2]; x1 = 0.6575): 1200.2 ± 9.7 m/s
- speed of sound ([2]; x1 = 0.7027): 1198.4 ± 9.7 m/s
- speed of sound ([2]; x1 = 0.8004): 1195.1 ± 9.7 m/s
- speed of sound ([2]; x1 = 0.8952): 1192.9 ± 9.6 m/s
- speed of sound ([2]; x1 = 0.9497): 1192 ± 9.6 m/s
- speed of sound ([2]; x1 = 0.9848): 1191.8 ± 9.6 m/s
- speed of sound ([2]; x1 = 1): 1191.3 ± 9.6 m/s
- mass density ([2]; x1 = 0.0728): 728.1 ± 0.4 kg/m3
- mass density ([2]; x1 = 0.1021): 729 ± 0.4 kg/m3
- mass density ([2]; x1 = 0.2032): 732.6 ± 0.4 kg/m3
- mass density ([2]; x1 = 0.2976): 736.4 ± 0.4 kg/m3
- mass density ([2]; x1 = 0.3547): 739 ± 0.4 kg/m3
- mass density ([2]; x1 = 0.4171): 742.1 ± 0.4 kg/m3
- mass density ([2]; x1 = 0.5016): 747 ± 0.4 kg/m3
- mass density ([2]; x1 = 0.6084): 754.2 ± 0.4 kg/m3
- mass density ([2]; x1 = 0.6575): 758 ± 0.4 kg/m3
- mass density ([2]; x1 = 0.7027): 761.9 ± 0.4 kg/m3
- mass density ([2]; x1 = 0.8004): 771.6 ± 0.4 kg/m3
- mass density ([2]; x1 = 0.8952): 782.9 ± 0.4 kg/m3
- mass density ([2]; x1 = 0.9497): 790.5 ± 0.4 kg/m3
- mass density ([2]; x1 = 0.9848): 795.8 ± 0.4 kg/m3
- mass density ([2]; x1 = 1): 798.2 ± 0.4 kg/m3

SMILES: CCCCCCCCCC [decane]
- viscosity [1]: 0.845 ± 0.013 mPa·s
- speed of sound [1]: 1235.4 ± 10 m/s
- mass density [1]: 725.9 ± 0.4 kg/m3

SMILES: CCCCCCCCCC [decane] + CC(C)CO
- viscosity ([2]; x2 = 0): 0.845 ± 0.013 mPa·s
- speed of sound ([2]; x2 = 0): 1235.4 ± 10 m/s
- mass density ([2]; x2 = 0): 725.9 ± 0.4 kg/m3

SMILES: CCCCCC [hexane]
- viscosity [1]: 0.313 ± 0.012 mPa·s
- speed of sound [1]: 1078.5 ± 8.7 m/s
- mass density [1]: 654.9 ± 0.4 kg/m3

SMILES: CCCCCC [hexane] + CC(C)CO
- viscosity ([2]; x2 = 0): 0.313 ± 0.012 mPa·s
- speed of sound ([2]; x2 = 0): 1078.5 ± 8.7 m/s
- mass density ([2]; x2 = 0): 654.9 ± 0.4 kg/m3

SMILES: CCCCCCCC [octane]
- viscosity [1]: 0.518 ± 0.013 mPa·s
- speed of sound [1]: 1170.9 ± 9.5 m/s
- mass density [1]: 698.6 ± 0.4 kg/m3

SMILES: CCCCCCCC [octane] + CC(C)CO
- viscosity ([2]; x2 = 0): 0.518 ± 0.013 mPa·s
- speed of sound ([2]; x2 = 0): 1170.9 ± 9.5 m/s
- mass density ([2]; x2 = 0): 698.6 ± 0.4 kg/m3

— the NIST ThermoML archive (doi:10.1021/je060389r)
